Reference: ChEMBL document CHEMBL1201862, “PubChem BioAssay data set” (2004)
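Following 48 hours of exposure in 96-well plates, responses at five concentrations were used to interpolate endpoints linearly. GI50 is the concentration that inhibits growth by half.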 The source made the active and inactive calls. No stated cut-off is given here; in the data, active = GI50 up to about 1.1 µM and inactive = higher.

How the values were obtained:
Test in all cases: NCI-60 cell line screen, 48 h
[1] = system: RXF 393
[2] = system: UO-31
[3] = system: SR
[4] = system: OVCAR-4
[5] = system: CCRF-CEM
[6] = system: ACHN
[7] = system: KM-20L2
[8] = system: MOLT-4
[9] = system: NCI-H23
[10] = system: A549
[11] = system: 786-0
[12] = system: OVCAR-3
[13] = system: SW-620
[14] = system: UACC-62
[15] = system: HCC 2998
[16] = system: CAKI-1
[17] = system: MCF7
[18] = system: T47D
[19] = system: MDA-MB-435
[20] = system: BT-549

Structure (SMILES) | GI50 [1] | GI50 [2] | GI50 [3] | GI50 [4] | GI50 [5] | GI50 [6] | GI50 [7] | GI50 [8] | GI50 [9] | GI50 [10] | GI50 [11] | GI50 [12] | GI50 [13] | GI50 [14] | GI50 [15] | GI50 [16] | GI50 [17] | GI50 [18] | GI50 [19] | GI50 [20]
O=c1cccccc1NCCCCCCCCCNc1cccccc1=O | 22.5 µM (inactive) | 12 µM (inactive) | 8.43 µM (inactive) | 1.78 µM (inactive) | 5.94 µM (inactive) | 4.28 µM (inactive) | 19.6 µM (inactive) | 5.75 µM (inactive) | 5.26 µM (inactive) | 9.66 µM (inactive) | 22.1 µM (inactive) | 9.06 µM (inactive) | 18.6 µM (inactive) | 12.5 µM (inactive) | 13.3 µM (inactive) | 13.3 µM (inactive) | – | – | – | –
CCC(C)(C)C(=O)O[C@H]1C[C@@H](C)C=C2C=C[C@H](C)[C@H](CC[C@@H]3C[C@@H](O)CC(=O)O3)[C@H]21 [SIMVASTATIN] | 0.811 µM (active) | 3.72 µM (inactive) | 13.2 µM (inactive) | > 30 µM (inactive) | 11.3 µM (inactive) | 0.447 µM (active) | 12.3 µM (inactive) | > 30 µM (inactive) | 0.982 µM (active) | 5.79 µM (inactive) | 9.33 µM (inactive) | 23.1 µM (inactive) | 9.59 µM (inactive) | 0.469 µM (active) | 16.5 µM (inactive) | 4.03 µM (inactive) | – | – | – | –
N#CC1CC(c2ccccc2)Nc2cc(Cl)ccc2N1 (configuration not stated) | 38.8 µM (inactive) | > 100 µM (inactive) | 14.3 µM (inactive) | 40.5 µM (inactive) | 3.18 µM (inactive) | 61.5 µM (inactive) | 43.7 µM (inactive) | 10.9 µM (inactive) | 31.6 µM (inactive) | 37.6 µM (inactive) | 24.1 µM (inactive) | 19.3 µM (inactive) | 4.5 µM (inactive) | 31.6 µM (inactive) | > 100 µM (inactive) | 34.8 µM (inactive) | – | – | – | –
Oc1ccc2ccccc2c1/N=N/c1ccc(F)cc1 | > 100 µM (inactive) | 42.6 µM (inactive) | > 100 µM (inactive) | > 100 µM (inactive) | > 100 µM (inactive) | > 100 µM (inactive) | > 100 µM (inactive) | > 100 µM (inactive) | > 100 µM (inactive) | > 100 µM (inactive) | > 100 µM (inactive) | > 100 µM (inactive) | > 100 µM (inactive) | > 100 µM (inactive) | > 100 µM (inactive) | > 100 µM (inactive) | – | – | – | –
COc1cc2ccc3c4ccccc4cnc3c2cc1OC | > 100 µM (inactive) | > 100 µM (inactive) | > 100 µM (inactive) | > 100 µM (inactive) | > 100 µM (inactive) | > 100 µM (inactive) | > 100 µM (inactive) | 93.1 µM (inactive) | > 100 µM (inactive) | > 100 µM (inactive) | > 100 µM (inactive) | > 100 µM (inactive) | > 100 µM (inactive) | > 100 µM (inactive) | > 100 µM (inactive) | > 100 µM (inactive) | – | – | – | –
CN(Cc1cnc2nc(N)nc(N)c2n1)c1ccc(C(=O)NC(CCC(=O)O)C(=O)O)c2ccccc12 (configuration not stated) | < 0.1 µM (active) | 0.00638 µM (active) | 0.0025 µM (active) | < 0.1 µM (active) | 0.000843 µM (active) | 0.00441 µM (active) | 0.01 µM (active) | 0.00545 µM (active) | 0.00773 µM (active) | 0.00286 µM (active) | 0.00303 µM (active) | 0.0429 µM (active) | 0.00137 µM (active) | 0.00148 µM (active) | 0.00145 µM (active) | 0.00489 µM (active) | 1.63 nM (active) | 204 nM (active) | 2.47 nM (active) | 92 nM (active)
CCOC(=O)/C(C(=O)c1ccccc1)=C1\N[C@H](C(=O)OCC)CS1 | > 100 µM (inactive) | > 100 µM (inactive) | > 100 µM (inactive) | > 100 µM (inactive) | > 100 µM (inactive) | > 100 µM (inactive) | > 100 µM (inactive) | > 100 µM (inactive) | > 100 µM (inactive) | > 100 µM (inactive) | 10 µM (inactive) | > 100 µM (inactive) | > 100 µM (inactive) | > 100 µM (inactive) | > 100 µM (inactive) | > 100 µM (inactive) | – | – | – | –
NN1C(=O)C(CCO)S/C1=N/N=C1/SC(CCO)C(=O)N1N (configuration not stated) | > 100 µM (inactive) | > 100 µM (inactive) | > 100 µM (inactive) | > 100 µM (inactive) | > 100 µM (inactive) | > 100 µM (inactive) | > 100 µM (inactive) | > 100 µM (inactive) | > 100 µM (inactive) | > 100 µM (inactive) | > 100 µM (inactive) | > 100 µM (inactive) | > 100 µM (inactive) | > 100 µM (inactive) | > 100 µM (inactive) | > 100 µM (inactive) | – | – | – | –
